Measurements taken from patent US20200317784A1, “METHODS AND COMPOSITIONS FOR TREATING CANCER BY MODIFYING MULTIPLE ARMS OF THE IMMUNE SYSTEM” (BioXcel Therapeutics, Inc., priority 2017, published 2020).

Columns and labels:
[1] = tested on: Ly6G+ cells (tumoricidal neutrophils); test: IHC of neutrophil infiltrate in Pan02 tumor samples; details: Day 8; compared to vehicle and PD-1 antagonist alone
Description: Tumor samples from the study groups were analyzed for infiltration of immune cells. […] The data was analyzed using GraphPad Prism 5. p<0.05 was statistically significant (*, p<0.05; **, p<0.01; ***, p<0.001).

Pan02 tumor cells = test: Anti-tumor efficacy in Pan02 syngeneic mouse model of pancreatic carcinoma; type: in vivo; details: Pan02 s.c., C57BL/6 mice
Text: Six to eight-week-old female C57BL/6 mice were used in the studies as supplied by Beijing Vital River Laboratory Animal Technology Co., Ltd. Mice received food and water ad libitum. The study protocol and the procedures involving the care and use of animals were reviewed and approved by the Institutional Animal Care and Use Committee (IACUC) to ensure compliance with the regulations of the Association for Assessment and Accreditation of Laboratory Animal Care (AAALAC).
Stock solutions of the PD-1 antagonist at 1 mg/ml concentrations were prepared and kept at 4° C. prior to use. Dosing solutions of the PD-1 antagonist were prepared freshly at a concentration of 1 mg/ml before every administration in sterile phosphate buffered saline (PBS), adjusted to pH 7.0, and administered at a dose of 10 mg/kg intraperitoneally (i.p) per 20 g mouse. […] Talabostat mesylate was obtained from a commercial source, and prepared freshly at a working concentration of 0.1 mg/ml before every administration in sterile phosphate buffered saline (pH 7.0), maintained at 4° C., and administered perorally (p.o.) at a total dose of 20 μg per 20 g mouse.
The tumor cells were routinely sub-cultured twice per week bytrypsin-EDTA treatment. The cells in anexponential growth phase were harvested and counted for tumor inoculation. […] The date of tumor cell inoculation was denoted as Day 0.
The dosing of the agents was started on day 5 after tumor inoculation and continued until Day 28 after tumor inoculation.
Body weight (in grams), and tumor volumes (in mm^3) were measured on Days 5, 8, 12, 15, 19, 22, 26 and 29. […] Tumor volume, expressed in mm^3, was measured with a calliper.
Data related to tumor volume are presented as mean and the standard error of the mean (SEM). Statistical analyses were conducted using Student's t-test. P<0.05 and P<0.001 were considered statistically significant.
% Tumor reduction=(Mean tumor volume^vehicle control−Mean tumor volume^treatmet_group)/Mean tumor volume^vehicle control×100Table 1B. Results

melanoma = melanoma patients; Postow et al. 2015; cited from earlier work

Molecule	Ly6G+ cells in tumor (IHC) [1]	% Tumor Reduction compared to vehicle control (Pan02 tumor cells; Day 19 after tumor inoculation) [%]	% Tumor Reduction compared to vehicle control (Pan02 tumor cells; Day 22 after tumor inoculation) [%]	% Tumor Reduction compared to vehicle control (Pan02 tumor cells; Day 26 after tumor inoculation) [%]	% Tumor Reduction compared to vehicle control (Pan02 tumor cells; Day 29 after tumor inoculation) [%]	response rate (melanoma) [%]
CC(C)[C@H](N)C(=O)N1CCC[C@H]1B(O)O.CS(=O)(=O)O [Talabostat mesylate, [(2R)-1-[(2S)-2-amino-3-methylbutanoyl]pyrrolidin-2-yl]boronic acid; methanesulfonic acid]	significant increase	61.23	58.18	65.42	65.61	–
nivolumab	–	–	–	–	–	32
ipilimumab: human monoclonal anti-CTLA-4 antibody	–	–	–	–	–	11
